Laboratory results as given in publication PMC5856786, “A DHODH inhibitor increases p53 synthesis and enhances tumor cell killing by p53 degradation blockage” (Nature Communications, 2018).
Where a name gives a salt, the structure may show the parent alone.

Target: recombinant human DHODH (Homo sapiens, UniProt Q02127)
Assay: Endpoint DHODH enzyme assay (coenzyme Q10, DCIP)
Format: biochemical
Parameters: purchased Prospecbio ENZ-642
Details: compound at 10 µM
Procedure: In Supplementary Tables 5 and 6, endpoint assays were performed with 10 nM recombinant human DHODH (#ENZ-642, Prospecbio). The reaction mixture consisted of 624.6 µM DL-dihydroorotic acid, 66.4 µM coenzyme Q10, 66.4 µM 2,6-dichlorophenolindophenol sodium salt (DCIP) (all reagents purchased from Sigma-Aldrich) in enzyme buffer (50 mM Tris-HCl, pH 8.0, 0.1% Triton X-100, 150 mM KCl). Loss in absorbance by DCIP was measured at 595 nm after incubation at RT for 60 min.

[1] = Supplementary Table 5, 20,000 compound library
[2] = Supplementary Table 6, 30,000 compound library

recombinant human DHODH, sequence (Q02127 31-395 limits assumed): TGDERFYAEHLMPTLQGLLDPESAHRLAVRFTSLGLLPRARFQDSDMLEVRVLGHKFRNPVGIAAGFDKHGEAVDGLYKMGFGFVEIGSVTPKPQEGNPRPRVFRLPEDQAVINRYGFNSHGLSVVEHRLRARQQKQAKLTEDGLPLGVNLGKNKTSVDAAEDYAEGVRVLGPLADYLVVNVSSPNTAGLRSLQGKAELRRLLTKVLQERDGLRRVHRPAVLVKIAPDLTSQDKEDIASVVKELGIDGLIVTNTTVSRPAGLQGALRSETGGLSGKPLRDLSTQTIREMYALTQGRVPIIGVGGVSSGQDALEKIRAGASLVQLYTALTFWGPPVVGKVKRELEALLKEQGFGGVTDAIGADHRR

SMILES | remaining activity at 10 µM [2] [%] | further results
COc1cccc(-c2noc(-c3ccc(N4C[C@H]5CC[C@H]4C5)nc3)n2)c1OC (relative stereo) [compound 75901793, (1S*,4S*)-2-{5-[3-(2,3-dimethoxyphenyl)-1,2,4-oxadiazol-5-yl]-2-pyridinyl}-2-azabicyclo[2.2.1]heptane] |  | remaining DHODH activity (%) Average [1]: 5.94%
O=C(Nc1ccc2ccccc2c1)C12CC3CC(CC(C3)C1)C2 [compound 5135537, N-2-naphthyl-1-adamantanecarboxamide] |  | remaining activity at 10 µM [1]: 32%
CCN(CC)c1ccc2cc(-c3nc4ccccc4n3C)c(=O)oc2c1 [compound 5213776, 7-(diethylamino)-3-(1-methyl-1H-benzimidazol-2-yl)-2H-chromen-2-one] | 96.8 | 
O=C1NC(c2ccc3ccccc3c2)Nc2sc3c(c21)CCCC3 (stereo not shown) [compound 5232020, 2-(2-naphthyl)-2,3,5,6,7,8-hexahydro[1]benzothieno[2,3-d]pyrimidin-4(1H)-one] | 43.5 | 
O=C1C(O)=C(c2ccc(-c3ccccc3)cc2)C(=O)c2ccccc21 [compound 5248918, 2-(4-biphenylyl)-3-hydroxynaphthoquinone] |  | remaining DHODH activity (%) Average [2]: -1.54%
CCOC(=O)c1c(-c2ccccc2)csc1NC(=O)c1cc(OC)c(OC)c(OC)c1 [compound 5264537, ethyl 4-phenyl-2-[(3,4,5-trimethoxybenzoyl)amino]-3-thiophenecarboxylate] |  | remaining activity at 10 µM [1]: 82.9%
Brc1ccc2[nH]c3c(c2c1)CCCC3NCCc1ccccc1 (stereo not shown) [compound 5265927, 6-bromo-N-(2-phenylethyl)-2,3,4,9-tetrahydro-1H-carbazol-1-amine hydrochloride] | 55.7 | 
Oc1ccccc1C=Nc1ccc2cc3ccc(N=Cc4ccccc4O)cc3nc2c1 [compound 5267938, 2,2'-[3,6-acridinediylbis(nitrilomethylylidene)]diphenol] |  | remaining DHODH activity (%) Average [2]: 98.57%
COc1ccccc1N1C(=O)C(=C2C(=O)Nc3ccc(Br)cc32)SC1=S [compound 5284467, 5-bromo-3-[3-(2-methoxyphenyl)-4-oxo-2-thioxo-1,3-thiazolidin-5-ylidene]-1,3-dihydro-2H-indol-2-one] |  | remaining DHODH activity (%) Average [2]: 98.93%
O=C(NN=CC(Br)=Cc1ccccc1)c1n[nH]c2c1CCC2 [compound 5313702, N'-(2-bromo-3-phenyl-2-propen-1-ylidene)-1,4,5,6-tetrahydrocyclopenta[c]pyrazole-3-carbohydrazide] |  | remaining DHODH activity (%) Average [2]: 92.49%
O=C(Nc1cc(Cl)ccc1Cl)c1ccc([N+](=O)[O-])o1 [compound 5351342, N-(2,5-dichlorophenyl)-5-nitro-2-furamide] |  | remaining activity at 10 µM [1]: 90.4%
CCc1ccc(NC(=O)c2ccc([N+](=O)[O-])o2)cc1 [compound 5351720, N-(4-ethylphenyl)-5-nitro-2-furamide] |  | remaining activity at 10 µM [1]: 73.5%
COc1ccc(Cl)cc1NC(=O)c1ccc([N+](=O)[O-])o1 [compound 5356839, N-(5-chloro-2-methoxyphenyl)-5-nitro-2-furamide] |  | remaining activity at 10 µM [1]: 83.8%
c1ccc(NN=C2CCc3ccccc3N2)cc1 [compound 5373649, 3,4-dihydro-2(1H)-quinolinone phenylhydrazone hydrochloride] | 101 | 
Cc1ccc(C=NNC(=O)c2c(C)nc3ccc(Cl)cn23)cc1 [compound 5378429, 6-chloro-2-methyl-N'-(4-methylbenzylidene)imidazo[1,2-a]pyridine-3-carbohydrazide] | 100 | 
Cc1ccc2[nH]c3c(c2c1)CCCC3NC=C1C(=O)CC(C)(C)CC1=O (stereo not shown) [compound 5666613, 5,5-dimethyl-2-{[(6-methyl-2,3,4,9-tetrahydro-1H-carbazol-1-yl)amino]methylene}-1,3-cyclohexanedione] |  | remaining DHODH activity (%) Average [2]: 92.20%
O=C(Nc1nc2ccccc2s1)C1c2ccccc2Oc2ccccc21 [compound 5704541, N-1,3-benzothiazol-2-yl-9H-xanthene-9-carboxamide] | 71 | 
COc1ccc2c(c1)c(C=Cc1nc3ccccc3c(=O)[nH]1)c(C)n2C [compound 5705453, 2-[2-(5-methoxy-1,2-dimethyl-1H-indol-3-yl)vinyl]-4(3H)-quinazolinone] | 66.1 | 
CN(C)c1ccc(C=Cc2nc3ccccc3c(=O)[nH]2)cc1 [compound 5705506, 2-{2-[4-(dimethylamino)phenyl]vinyl}-4(3H)-quinazolinone] | 82.5 | 
CCOc1ccc(S(=O)(=O)Nc2cc(Br)c3oc(C)c(C(C)=O)c3c2)cc1 [compound 5754791, N-(3-acetyl-7-bromo-2-methyl-1-benzofuran-5-yl)-4-ethoxybenzenesulfonamide] | 96.8 | 
O=[N+]([O-])c1ccc2[nH]c3c(c2c1)CCCC3NC1CCN(CCc2ccccc2)CC1 (stereo not shown) [compound 5781441, 6-nitro-N-[1-(2-phenylethyl)-4-piperidinyl]-2,3,4,9-tetrahydro-1H-carbazol-1-amine] | 59.6 | 
COc1ccc(CC(C)NC2CCCc3c2[nH]c2ccc([N+](=O)[O-])cc32)cc1OC (stereo not shown) [compound 5781442, N-[2-(3,4-dimethoxyphenyl)-1-methylethyl]-6-nitro-2,3,4,9-tetrahydro-1H-carbazol-1-amine] | 78.3 | 

Further lines, with some results ahead:

remaining activity at 10 µM [2] [%] | SMILES | further results
19.2 | Cc1cccn(CC(=O)c2ccc(-c3ccccc3)cc2)c1=N [compound 5120580, 1-(4-biphenylyl)-2-(2-imino-3-methyl-1(2H)-pyridinyl)ethanone hydrobromide] | 
101 | COCCOC(=O)Nc1nc2sc3c(c2s1)CCCC3 [compound 5175570, 2-methoxyethyl 5,6,7,8-tetrahydro[1]benzothieno[2,3-d][1,3]thiazol-2-ylcarbamate] | 
92.1 | CCN(CC)c1ccc2cc(-c3nc4ccccc4o3)c(=O)oc2c1 [compound 5213777, 3-(1,3-benzoxazol-2-yl)-7-(diethylamino)-2H-chromen-2-one] | 
100 | COc1ccccc1NC1=CC(=O)CC(c2ccccc2)C1 (stereo not shown) [compound 5220809, 3-[(2-methoxyphenyl)amino]-5-phenyl-2-cyclohexen-1-one] | 
100 | O=C(NN=Cc1ccc(Br)cc1)C1COc2ccccc2O1 (stereo not shown) [compound 5249701, N'-(4-bromobenzylidene)-2,3-dihydro-1,4-benzodioxine-2-carbohydrazide] | 
97.5 | COc1ccccc1N1CCN(C(=O)c2ccc(Cl)c([N+](=O)[O-])c2)CC1 [compound 5276937, 1-(4-chloro-3-nitrobenzoyl)-4-(2-methoxyphenyl)piperazine] | 
100 | Nc1cccc2c1C(=O)c1cccc(NC(=O)c3ccccc3)c1C2=O [compound 5301107, N-(5-amino-9,10-dioxo-9,10-dihydro-1-anthracenyl)benzamide] | 
12.6 | Cc1ccc2[nH]c3c(c2c1)CCCC3NC1CCCCC1 (stereo not shown) [compound 5303009, N-cyclohexyl-6-methyl-2,3,4,9-tetrahydro-1H-carbazol-1-amine] | 
101 | Cc1ccccc1C=Nc1ccccc1C(N)=O [compound 5320101, 2-[(2-methylbenzylidene)amino]benzamide] | 
97.6 | NC(=O)c1ccccc1N=Cc1cccc(Cl)c1 [compound 5321611, 2-[(3-chlorobenzylidene)amino]benzamide] | 
98.8 | O=c1c(Cl)c(Cl)cnn1-c1ccc(Cl)c(C(F)(F)F)c1 [compound 5344759, 4,5-dichloro-2-[4-chloro-3-(trifluoromethyl)phenyl]-3(2H)-pyridazinone] | 
8.96 | O=C(NN=Cc1ccc(O)cc1)c1cc(-c2ccccc2)nc2ccccc12 [compound 5347717, N'-(4-hydroxybenzylidene)-2-phenyl-4-quinolinecarbohydrazide] | 
99.2 | COc1ccc(S(=O)(=O)Nc2ccc(I)cc2C)cc1 [compound 5351654, N-(4-iodo-2-methylphenyl)-4-methoxybenzenesulfonamide] | 
58.2 | NN=C1CCCc2c1[nH]c1ccc(Br)cc21 [compound 5373779, 6-bromo-2,3,4,9-tetrahydro-1H-carbazol-1-one hydrazone] | 
98.4 | Cc1ccc(OCC(=O)NN=Cc2ccc(-c3ccc(Br)cc3)o2)cc1 [compound 5472837, N'-{[5-(4-bromophenyl)-2-furyl]methylene}-2-(4-methylphenoxy)acetohydrazide] | 
98 | O=C(NN=Cc1cccc(Oc2ccccc2)c1)c1cccc([N+](=O)[O-])c1 [compound 5545710, 3-nitro-N'-(3-phenoxybenzylidene)benzohydrazide] | 
78.1 | Cc1ccc(C=NNC(=O)COc2ccccc2Br)c(C)c1 [compound 5554099, 2-(2-bromophenoxy)-N'-(2,4-dimethylbenzylidene)acetohydrazide] | 
42.5 | COc1ccc(CNc2ccc(Br)c(C)c2)cc1Br [compound 5561538, (3-bromo-4-methoxybenzyl)(4-bromo-3-methylphenyl)amine] | 
98.4 | O=c1[nH]c(C=Cc2ccccc2)nc2sc3c(c12)CCCC3 [compound 5625039, 2-(2-phenylvinyl)-5,6,7,8-tetrahydro[1]benzothieno[2,3-d]pyrimidin-4(3H)-one] | 
68.4 | Cn1c2ccccc2n2c(C(O)C(Cl)(Cl)Cl)c(-c3ccccc3)nc12 (stereo not shown) [compound 5650027, 2,2,2-trichloro-1-(9-methyl-2-phenyl-9H-imidazo[1,2-a]benzimidazol-3-yl)ethanol] | 
48.5 | O=C1Nc2ccccc2C1=CNC1CCCc2c1[nH]c1ccccc21 (stereo not shown) [compound 5666718, 3-[(2,3,4,9-tetrahydro-1H-carbazol-1-ylamino)methylene]-1,3-dihydro-2H-indol-2-one] | 
